Test results as given in ChEMBL document CHEMBL1201862, “PubChem BioAssay data set” (2004).
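Values below derive from 48-hour exposures of cells grown in 96-well plates, with endpoints linearly interpolated between the two concentrations bracketing the appropriate inhibition level. GI50 = concentration required for 50% inhibition of growth.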 Activity calls are given as the source filed them. Cut-off read from the data, not from the text of the source: active = GI50 up to about 1.1 µM and inactive = higher.

What was measured:
Assay in all cases: inhibition of tumour cell growth, NCI panel, 48 h
ACHN = test system: ACHN
IGROV-1 = test system: IGROV-1
K562 = test system: K562
KM-20L2 = test system: KM-20L2
KM12 = test system: KM12
MOLT-4 = test system: MOLT-4
Malme-3M = test system: Malme-3M
OVCAR-4 = test system: OVCAR-4
RXF 393 = test system: RXF 393
SW-620 = test system: SW-620
TK-10 = test system: TK-10
UO-31 = test system: UO-31
CAKI-1 = test system: CAKI-1
HCT-116 = test system: HCT-116
OVCAR-3 = test system: OVCAR-3
SF-539 = test system: SF-539
BT-549 = test system: BT-549
Hs-578T = test system: Hs-578T
MDA-MB-435 = test system: MDA-MB-435
T47D = test system: T47D

SMILES | GI50 (ACHN) | GI50 (IGROV-1) | GI50 (K562) | GI50 (KM-20L2) | GI50 (KM12) | GI50 (MOLT-4) | GI50 (Malme-3M) | GI50 (OVCAR-4) | GI50 (RXF 393) | GI50 (SW-620) | GI50 (TK-10) | GI50 (UO-31) | GI50 (CAKI-1) | GI50 (HCT-116) | GI50 (OVCAR-3) | GI50 (SF-539) | GI50 (BT-549) | GI50 (Hs-578T) | GI50 (MDA-MB-435) | GI50 (T47D)
CC1COS(=O)N1c1ccccc1 (configuration not stated) | > 100 µM (inactive) | > 100 µM (inactive) | > 100 µM (inactive) | > 100 µM (inactive) | > 100 µM (inactive) | > 100 µM (inactive) | > 100 µM (inactive) | > 100 µM (inactive) | > 100 µM (inactive) | > 100 µM (inactive) | > 100 µM (inactive) | > 100 µM (inactive) | – | – | – | – | – | – | – | –
N#Cc1ccccc1NC(=O)c1ccccc1 | > 100 µM (inactive) | > 100 µM (inactive) | > 100 µM (inactive) | > 100 µM (inactive) | > 100 µM (inactive) | – | > 100 µM (inactive) | > 100 µM (inactive) | > 100 µM (inactive) | > 100 µM (inactive) | > 100 µM (inactive) | – | > 100 µM (inactive) | > 100 µM (inactive) | > 100 µM (inactive) | > 100 µM (inactive) | – | – | – | –
Nc1nc(SCCC/C=C/B(O)O)nc2c1ncn2C1OC(COP(=O)(O)O)C(O)C1O (configuration not stated) | > 203 µM (inactive) | > 203 µM (inactive) | > 203 µM (inactive) | > 203 µM (inactive) | > 203 µM (inactive) | > 203 µM (inactive) | > 203 µM (inactive) | > 203 µM (inactive) | – | > 203 µM (inactive) | > 203 µM (inactive) | > 203 µM (inactive) | > 203 µM (inactive) | > 203 µM (inactive) | > 203 µM (inactive) | > 203 µM (inactive) | – | – | – | –
CCOC(=O)C1C(c2ccc(Br)cc2)N(Cc2ccccc2)C(c2ccc(Br)cc2)C(C(=O)OC)S1(=O)=O (configuration not stated) | 93.5 µM (inactive) | > 100 µM (inactive) | 87.7 µM (inactive) | > 100 µM (inactive) | > 100 µM (inactive) | > 100 µM (inactive) | > 100 µM (inactive) | 29.1 µM (inactive) | 33.6 µM (inactive) | > 100 µM (inactive) | > 100 µM (inactive) | 49.7 µM (inactive) | 77.1 µM (inactive) | 25.2 µM (inactive) | > 100 µM (inactive) | – | – | – | – | –
C=CCc1cc(OC)c(O)c(C(=O)/C=C/c2ccc(OC)c(OC)c2)c1 | 19.9 µM (inactive) | 44.6 µM (inactive) | 10.7 µM (inactive) | > 10 µM (inactive) | 19.5 µM (inactive) | 1.2 µM (inactive) | 18.6 µM (inactive) | 16.2 µM (inactive) | – | 24.4 µM (inactive) | 25.1 µM (inactive) | 15.9 µM (inactive) | 22.1 µM (inactive) | 14.5 µM (inactive) | 19.3 µM (inactive) | 19.1 µM (inactive) | – | – | – | –
O=C1NC(=O)C(=Cc2c3ccccc3cc3ccccc23)C(=O)N1 | > 100 µM (inactive) | > 100 µM (inactive) | 71.3 µM (inactive) | > 100 µM (inactive) | – | 55.5 µM (inactive) | – | – | > 100 µM (inactive) | > 100 µM (inactive) | > 100 µM (inactive) | > 100 µM (inactive) | 47.2 µM (inactive) | > 100 µM (inactive) | – | > 100 µM (inactive) | – | – | – | –
O=C(O/N=C1/CCCC/C1=C\c1ccccc1)c1ccccc1 | > 100 µM (inactive) | 0.108 µM (active) | 20.8 µM (inactive) | > 100 µM (inactive) | 45.3 µM (inactive) | 24.5 µM (inactive) | > 100 µM (inactive) | – | > 100 µM (inactive) | > 100 µM (inactive) | > 100 µM (inactive) | > 100 µM (inactive) | – | 34 µM (inactive) | > 100 µM (inactive) | > 100 µM (inactive) | – | – | – | –
Cc1cn(S(=O)(=O)c2ccccc2)c2c(OCc3ccccc3)cc([N+](=O)[O-])cc12 | 61.7 µM (inactive) | 71 µM (inactive) | > 100 µM (inactive) | – | > 100 µM (inactive) | > 100 µM (inactive) | 17.5 µM (inactive) | 86.3 µM (inactive) | 25.1 µM (inactive) | 63 µM (inactive) | > 100 µM (inactive) | 69.3 µM (inactive) | > 100 µM (inactive) | > 100 µM (inactive) | > 100 µM (inactive) | > 100 µM (inactive) | > 100 µM (inactive) | 26 µM (inactive) | 3.92 µM (inactive) | 29.2 µM (inactive)
N#Cc1nc(Nc2ccc(Cl)cc2)sc1N | 3.86 µM (inactive) | 19.5 µM (inactive) | 3.91 µM (inactive) | 17.1 µM (inactive) | 13.8 µM (inactive) | 1.52 µM (inactive) | 11.6 µM (inactive) | 24 µM (inactive) | – | 6.1 µM (inactive) | 23 µM (inactive) | 3.62 µM (inactive) | 7.57 µM (inactive) | 6.44 µM (inactive) | 17.8 µM (inactive) | 2.78 µM (inactive) | – | – | – | –
CC(=O)OCc1cc2ccccc2nc1C(Br)(Br)Br | 13.2 µM (inactive) | 12 µM (inactive) | 18 µM (inactive) | – | 13 µM (inactive) | 9.02 µM (inactive) | 0.603 µM (active) | 11.8 µM (inactive) | 15.4 µM (inactive) | 18.7 µM (inactive) | 16.1 µM (inactive) | 15.6 µM (inactive) | 15.7 µM (inactive) | 12.5 µM (inactive) | 14.8 µM (inactive) | 21.1 µM (inactive) | 10.4 µM (inactive) | 27 µM (inactive) | 13.3 µM (inactive) | 27.8 µM (inactive)
COC(=O)CCC1=NCC(C)(C)O1 | > 10 µM (inactive) | > 10 µM (inactive) | 0.182 µM (active) | – | > 10 µM (inactive) | > 10 µM (inactive) | > 10 µM (inactive) | > 10 µM (inactive) | > 10 µM (inactive) | > 10 µM (inactive) | > 10 µM (inactive) | > 10 µM (inactive) | > 10 µM (inactive) | > 10 µM (inactive) | > 10 µM (inactive) | > 10 µM (inactive) | > 10 µM (inactive) | > 10 µM (inactive) | > 10 µM (inactive) | > 10 µM (inactive)
Cc1cc(C)nc(NS(=O)(=O)c2ccc(NC(=O)c3ccc4nc5ccccc5c(Nc5ccc(S(N)(=O)=O)cc5)c4c3)cc2)n1 | > 100 µM (inactive) | > 100 µM (inactive) | 40 µM (inactive) | – | 65.8 µM (inactive) | 50.6 µM (inactive) | 93.3 µM (inactive) | 83.8 µM (inactive) | 33 µM (inactive) | > 100 µM (inactive) | > 100 µM (inactive) | > 100 µM (inactive) | > 100 µM (inactive) | > 100 µM (inactive) | 48.5 µM (inactive) | > 100 µM (inactive) | 28.2 µM (inactive) | 91.2 µM (inactive) | > 100 µM (inactive) | > 100 µM (inactive)
C/C(=N\NS(=O)(=O)c1ccccc1)c1ccc[n+]([O-])n1 | > 100 µM (inactive) | > 100 µM (inactive) | 21 µM (inactive) | > 100 µM (inactive) | > 100 µM (inactive) | 36.4 µM (inactive) | – | 49.3 µM (inactive) | – | 34.8 µM (inactive) | – | > 100 µM (inactive) | 34.1 µM (inactive) | 88.1 µM (inactive) | 42.5 µM (inactive) | > 100 µM (inactive) | – | – | – | –
CCCCCNC(=O)C1C(=O)N(CCCCC)C(=O)/C1=N\N (configuration not stated) | 59.8 µM (inactive) | 53 µM (inactive) | 34.4 µM (inactive) | 48.6 µM (inactive) | 53.2 µM (inactive) | 40.8 µM (inactive) | > 100 µM (inactive) | 61.8 µM (inactive) | – | 79.3 µM (inactive) | > 100 µM (inactive) | 26.8 µM (inactive) | – | – | 46.8 µM (inactive) | 59.4 µM (inactive) | – | – | – | –
COC(=O)C(Cc1ccccc1)NC(=O)c1ccc(CNC(=S)NCc2cccc(CNC(=S)NCc3ccccc3)c2)cc1 (configuration not stated) | > 34.5 µM (inactive) | > 31.7 µM (inactive) | > 32.8 µM (inactive) | – | > 29 µM (inactive) | > 34 µM (inactive) | > 34.9 µM (inactive) | > 32.1 µM (inactive) | 20 µM (inactive) | > 32.9 µM (inactive) | > 35.8 µM (inactive) | > 35.2 µM (inactive) | > 36.4 µM (inactive) | > 34 µM (inactive) | 27.9 µM (inactive) | > 62.5 µM (inactive) | > 33.9 µM (inactive) | > 29.9 µM (inactive) | > 34.2 µM (inactive) | > 33.7 µM (inactive)
CC(OP(=O)(O)O)C(N)C(=O)O (configuration not stated) | > 100 µM (inactive) | > 100 µM (inactive) | > 100 µM (inactive) | – | > 100 µM (inactive) | > 100 µM (inactive) | > 100 µM (inactive) | > 100 µM (inactive) | > 100 µM (inactive) | > 100 µM (inactive) | > 100 µM (inactive) | > 100 µM (inactive) | > 100 µM (inactive) | > 100 µM (inactive) | > 100 µM (inactive) | > 100 µM (inactive) | > 100 µM (inactive) | > 100 µM (inactive) | > 100 µM (inactive) | > 100 µM (inactive)
CN(CCN(C)C(=O)CCn1cc(F)c(=O)[nH]c1=O)C(=O)CCn1cc(F)c(=O)[nH]c1=O | > 100 µM (inactive) | > 100 µM (inactive) | > 100 µM (inactive) | > 100 µM (inactive) | > 100 µM (inactive) | > 100 µM (inactive) | > 100 µM (inactive) | > 100 µM (inactive) | > 100 µM (inactive) | > 100 µM (inactive) | > 100 µM (inactive) | > 100 µM (inactive) | – | > 100 µM (inactive) | > 100 µM (inactive) | 95.5 µM (inactive) | – | – | – | –
